US10238670B2, “9-aminomethyl minocycline compounds and methods of use thereof in urinary tract infection (UTI) treatment” (Paratek Pharmaceuticals, Inc., priority 2016, dated 2019)
In brackets after ≈: the same amount, converted by molar mass. Values belong to the compound of their own block, whether it stands above or below them.

Experiments:
Test in all cases: In vitro MIC, 2010 surveillance isolates
E. coli ESBL− = type: cell-based, Escherichia coli
E. coli ESBL+ = type: cell-based, Escherichia coli
K. pneumoniae ESBL− = type: cell-based, Klebsiella pneumoniae
K. pneumoniae ESBL+ = type: cell-based, Klebsiella pneumoniae
K. oxytoca = type: cell-based
E. cloacae CeftazS = type: cell-based; parameters: MIC90: unit: µg/mL
E. cloacae CeftazR = type: cell-based
Enterobacter spp = type: cell-based
A. baumanii = type: cell-based
Acinetobacter spp = type: cell-based

MIC90 (E. coli ESBL−; Asia/Pac, N=282): ≤ 0.12 µg/mL
MIC90 (E. coli ESBL−; Europe, N=1533): ≤ 0.12 µg/mL
MIC90 (E. coli ESBL−; L. Amer, N=389): ≤ 0.12 µg/mL
MIC90 (E. coli ESBL−; N America, N=1172): ≤ 0.12 µg/mL
MIC90 (E. coli ESBL+; Asia/Pac, N=219): 0.25 µg/mL (≈ 0.835 µM)
MIC90 (E. coli ESBL+; Europe, N=274): 0.25 µg/mL (≈ 0.835 µM)
MIC90 (E. coli ESBL+; L. Amer, N=168): 0.25 µg/mL (≈ 0.835 µM)
MIC90 (E. coli ESBL+; N America, N=134): 0.25 µg/mL (≈ 0.835 µM)
MIC90 (K. pneumoniae ESBL−; Asia/Pac, N=189): 0.5 µg/mL (≈ 1.67 µM)
MIC90 (K. pneumoniae ESBL−; Europe, N=361): 0.25 µg/mL (≈ 0.835 µM)
MIC90 (K. pneumoniae ESBL−; L. Amer, N=160): 0.25 µg/mL (≈ 0.835 µM)
MIC90 (K. pneumoniae ESBL−; N America, N=671): 0.25 µg/mL (≈ 0.835 µM)
MIC90 (K. pneumoniae ESBL+; Asia/Pac, N=124): > 8 µg/mL
MIC90 (K. pneumoniae ESBL+; Europe, N=151): 2 µg/mL (≈ 6.68 µM)
MIC90 (K. pneumoniae ESBL+; L. Amer, N=209): > 8 µg/mL
MIC90 (K. pneumoniae ESBL+; N America, N=108): > 8 µg/mL
MIC90 (K. oxytoca; Asia/Pac, N=17): 0.5 µg/mL (≈ 1.67 µM)
MIC90 (K. oxytoca; Europe, N=158): 0.25 µg/mL (≈ 0.835 µM)
MIC90 (K. oxytoca; L. Amer, N=25): 0.25 µg/mL (≈ 0.835 µM)
MIC90 (K. oxytoca; N America, N=177): 0.25 µg/mL (≈ 0.835 µM)
MIC90 (E. cloacae CeftazS; Asia/Pac, N=100): 1 (1)
MIC90 (E. cloacae CeftazS; Europe, N=183): 0.5 µg/mL (≈ 1.67 µM)
MIC90 (E. cloacae CeftazS; L. Amer, N=57): 0.5 µg/mL (≈ 1.67 µM)
MIC90 (E. cloacae CeftazS; N America, N=210): 0.5 µg/mL (≈ 1.67 µM)
MIC90 (E. cloacae CeftazR; Asia/Pac, N=63): 1 µg/mL (≈ 3.34 µM)
MIC90 (E. cloacae CeftazR; Europe, N=72): 1 µg/mL (≈ 3.34 µM)
MIC90 (E. cloacae CeftazR; L. Amer, N=42): 0.5 µg/mL (≈ 1.67 µM)
MIC90 (E. cloacae CeftazR; N America, N=77): 8 µg/mL (≈ 26.7 µM)
MIC90 (Enterobacter spp; Asia/Pac, N=52): 1 µg/mL (≈ 3.34 µM)
MIC90 (Enterobacter spp; Europe, N=82): 1 µg/mL (≈ 3.34 µM)
MIC90 (Enterobacter spp; L. Amer, N=42): 1 µg/mL (≈ 3.34 µM)
MIC90 (Enterobacter spp; N America, N=101): 1 (1)
MIC90 (A. baumanii; Asia/Pac, N=275): > 8 µg/mL
MIC90 (A. baumanii; Europe, N=145): > 8 µg/mL
MIC90 (A. baumanii; L. Amer, N=275): > 8 µg/mL
MIC90 (A. baumanii; N America, N=154): > 8 µg/mL
MIC90 (Acinetobacter spp; Europe, N=43): > 8 µg/mL
MIC90 (Acinetobacter spp; N America, N=42): 8 µg/mL (≈ 26.7 µM)
Structure (SMILES): C[C@@H](O)[C@H]1C(=O)N2C(C(=O)O)=C(SCCN=CN)C[C@H]12 [Imipenem]
% R (resistance) (E. coli ESBL−; Asia/Pac, Eucast breakpoints): 0%
% R (resistance) (E. coli ESBL−; Europe, Eucast breakpoints): 0%
% R (resistance) (E. coli ESBL−; L. Amer, CLSI breakpoints): 0%
% R (resistance) (E. coli ESBL−; N America, CLSI breakpoints): 0%
% R (resistance) (E. coli ESBL+; Asia/Pac, Eucast breakpoints): 0.5%
% R (resistance) (E. coli ESBL+; Europe, Eucast breakpoints): 0%
% R (resistance) (E. coli ESBL+; L. Amer, CLSI breakpoints): 0.6%
% R (resistance) (E. coli ESBL+; N America, CLSI breakpoints): 0%
% R (resistance) (K. pneumoniae ESBL−; Asia/Pac, Eucast breakpoints): 0%
% R (resistance) (K. pneumoniae ESBL−; Europe, Eucast breakpoints): 0%
% R (resistance) (K. pneumoniae ESBL−; L. Amer, CLSI breakpoints): 0%
% R (resistance) (K. pneumoniae ESBL−; N America, CLSI breakpoints): 0%
% R (resistance) (K. pneumoniae ESBL+; Asia/Pac, Eucast breakpoints): 10.5%
% R (resistance) (K. pneumoniae ESBL+; Europe, Eucast breakpoints): 7.9%
% R (resistance) (K. pneumoniae ESBL+; L. Amer, CLSI breakpoints): 18.7%
% R (resistance) (K. pneumoniae ESBL+; N America, CLSI breakpoints): 26.9%
% R (resistance) (K. oxytoca; Asia/Pac, Eucast breakpoints): 0%
% R (resistance) (K. oxytoca; Europe, Eucast breakpoints): 0%
% R (resistance) (K. oxytoca; L. Amer, CLSI breakpoints): 4%
% R (resistance) (K. oxytoca; N America, CLSI breakpoints): 0.6%
% R (resistance) (E. cloacae CeftazS; Europe, Eucast breakpoints): 0%
% R (resistance) (E. cloacae CeftazS; L. Amer, CLSI breakpoints): 0%
% R (resistance) (E. cloacae CeftazS; N America, CLSI breakpoints): 0%
% R (resistance) (E. cloacae CeftazR; Asia/Pac, Eucast breakpoints): 0%
% R (resistance) (E. cloacae CeftazR; Europe, Eucast breakpoints): 1.4%
% R (resistance) (E. cloacae CeftazR; L. Amer, CLSI breakpoints): 0%
% R (resistance) (E. cloacae CeftazR; N America, CLSI breakpoints): 11.7%
% R (resistance) (Enterobacter spp; Asia/Pac, Eucast breakpoints): 0%
% R (resistance) (Enterobacter spp; Europe, Eucast breakpoints): 0%
% R (resistance) (Enterobacter spp; L. Amer, CLSI breakpoints): 0%
% R (resistance) (Enterobacter spp; N America, CLSI breakpoints): 1 (1) %
% R (resistance) (A. baumanii; Asia/Pac, Eucast breakpoints): 72.4%
% R (resistance) (A. baumanii; Europe, Eucast breakpoints): 66.2%
% R (resistance) (A. baumanii; L. Amer, CLSI breakpoints): 75.6%
% R (resistance) (A. baumanii; N America, CLSI breakpoints): 53.2%
% R (resistance) (Acinetobacter spp; Asia/Pac, Eucast breakpoints): 11.1%
% R (resistance) (Acinetobacter spp; Europe, Eucast breakpoints): 30.2%
% R (resistance) (Acinetobacter spp; L. Amer, CLSI breakpoints): 44.4%
% R (resistance) (Acinetobacter spp; N America, CLSI breakpoints): 4.8%

Structure (SMILES): CC(C)(O/N=C(\C(=O)N[C@@H]1C(=O)N2C(C(=O)[O-])=C(C[n+]3ccccc3)CS[C@H]12)c1csc(N)n1)C(=O)O [ceftazidime]
resistance rates for ESBL-producing clinical isolates (E. coli ESBL+; E. coli): 50%
